Measurements: patent publication US8815923B2, “Therapeutic compounds” (Allergan, Inc., priority 2007, dated 2014)

How the values were obtained:
Format in all cases: cell-based
alpha2B receptor = target: T1, alpha2B receptor (Homo sapiens, UniProt P18089); test: RSAT assay, Alpha 2B; conditions: for EC50: RSAT, transfected NIH-3T3 cells with Gq/i5, nd = not determinable at concentrations less than 10 micromolar; for Emax: read-out: Alpha 2B IA (intrinsic activity), in parentheses
T1 construct: expressed in transfected cells; host or cells: NIH-3T3
T1 sequence (P18089 1-450): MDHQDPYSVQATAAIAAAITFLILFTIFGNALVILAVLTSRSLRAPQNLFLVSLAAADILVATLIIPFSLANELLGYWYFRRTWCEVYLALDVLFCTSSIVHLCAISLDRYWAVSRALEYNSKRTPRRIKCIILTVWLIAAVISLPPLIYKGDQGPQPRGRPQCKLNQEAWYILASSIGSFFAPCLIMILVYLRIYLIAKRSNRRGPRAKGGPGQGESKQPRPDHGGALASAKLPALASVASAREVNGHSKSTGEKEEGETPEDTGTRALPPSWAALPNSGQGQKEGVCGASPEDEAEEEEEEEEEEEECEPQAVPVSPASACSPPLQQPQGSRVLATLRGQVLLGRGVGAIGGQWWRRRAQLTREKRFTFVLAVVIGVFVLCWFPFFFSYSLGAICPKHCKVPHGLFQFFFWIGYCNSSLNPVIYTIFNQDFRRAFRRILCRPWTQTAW
Procedure: (§1) Receptor Selection and Amplification Technology (RSAT) Assay
(§2) The RSAT assay measures a receptor-mediated loss of contact inhibition that results in selective proliferation of receptor-containing cells in a mixed population of confluent cells. The increase in cell number is assessed with an appropriate transfected marker gene such as β-galactosidase, the activity of which can be easily measured in a 96-well format. Receptors that activate the G protein, Gq, elicit this response. Alpha2 receptors, which normally couple to Gi, activate the RSAT response when coexpressed with a hybrid Gq protein that has a Gi receptor recognition domain, called Gq/i5.
(§3) NIH-3T3 cells are plated at a density of 2×10^6 cells in 15 cm dishes and maintained in Dulbecco's modified Eagle's medium supplemented with 10% calf serum. One day later, cells are cotransfected by calcium phosphate precipitation with mammalian expression plasmids encoding p-SV-β-galactosidase (5-10 μg), receptor (1-2 μg) and G protein (1-2 μg). 40 μg salmon sperm DNA may also be included in the transfection mixture. Fresh media is added on the following day and 1-2 days later, cells are harvested and frozen in 50 assay aliquots. Cells are thawed and 100 μl added to 100 μl aliquots of various concentrations of drugs in triplicate in 96-well dishes. Incubations continue 72-96 hr at 37° C. After washing with phosphate-buffered saline, β-galactosidase enzyme activity is determined by adding 200 μl of the chromogenic substrate (consisting of 3.5 mM o-nitrophenyl-β-D-galactopyranoside and 0.5% nonidet P-40 in phosphate buffered saline), incubating overnight at 30° C. and measuring optical density at 420 nm. The absorbance is a measure of enzyme activity, which depends on cell number and reflects a receptor-mediated cell proliferation. The efficacy or intrinsic activity is calculated as a ratio of the maximal effect of the drug to the maximal effect of a standard full agonist for each receptor subtype. Brimonidine, also called UK14304, the chemical structure of which is shown below, is used as the standard agonist for the alpha2A, alpha2B and alpha2C receptors. The EC50 is the concentration at which the drug effect is half of its maximal effect.
(§4) EC50 values are nanomolar. ND stands for “not determinable” at concentrations less than 10 micromolar. IA stands for “intrinsic activity.”

alpha2C receptor = target: T2, alpha2C receptor (Homo sapiens, UniProt P18825); test: RSAT assay, Alpha 2C; conditions: for Emax: read-out: Alpha 2C IA (intrinsic activity), in parentheses; for EC50: RSAT, transfected NIH-3T3 cells with Gq/i5, nd = not determinable at concentrations less than 10 micromolar
T2 construct: expressed in transfected cells; host or cells: NIH-3T3
T2 sequence (P18825 1-462): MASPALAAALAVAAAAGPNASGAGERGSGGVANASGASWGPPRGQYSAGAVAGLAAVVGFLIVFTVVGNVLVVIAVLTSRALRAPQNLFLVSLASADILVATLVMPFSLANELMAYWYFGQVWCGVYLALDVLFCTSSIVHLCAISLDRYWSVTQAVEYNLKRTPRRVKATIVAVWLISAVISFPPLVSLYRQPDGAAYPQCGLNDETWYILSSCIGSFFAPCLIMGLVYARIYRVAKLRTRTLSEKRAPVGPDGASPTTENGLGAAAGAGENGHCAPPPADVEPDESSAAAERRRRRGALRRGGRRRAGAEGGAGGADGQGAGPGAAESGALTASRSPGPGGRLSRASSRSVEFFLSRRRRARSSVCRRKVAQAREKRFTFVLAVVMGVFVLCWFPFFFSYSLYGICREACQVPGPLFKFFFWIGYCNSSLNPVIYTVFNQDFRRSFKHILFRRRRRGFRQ
Procedure: as §1, §2, §3, §4

alpha2A receptor = target: T3, alpha2A receptor (Homo sapiens, UniProt P08913); test: RSAT assay, Alpha 2A; conditions: for Emax: read-out: Alpha 2A IA (intrinsic activity), in parentheses
T3 construct: expressed in transfected cells; host or cells: NIH-3T3
T3 sequence (P08913 1-465): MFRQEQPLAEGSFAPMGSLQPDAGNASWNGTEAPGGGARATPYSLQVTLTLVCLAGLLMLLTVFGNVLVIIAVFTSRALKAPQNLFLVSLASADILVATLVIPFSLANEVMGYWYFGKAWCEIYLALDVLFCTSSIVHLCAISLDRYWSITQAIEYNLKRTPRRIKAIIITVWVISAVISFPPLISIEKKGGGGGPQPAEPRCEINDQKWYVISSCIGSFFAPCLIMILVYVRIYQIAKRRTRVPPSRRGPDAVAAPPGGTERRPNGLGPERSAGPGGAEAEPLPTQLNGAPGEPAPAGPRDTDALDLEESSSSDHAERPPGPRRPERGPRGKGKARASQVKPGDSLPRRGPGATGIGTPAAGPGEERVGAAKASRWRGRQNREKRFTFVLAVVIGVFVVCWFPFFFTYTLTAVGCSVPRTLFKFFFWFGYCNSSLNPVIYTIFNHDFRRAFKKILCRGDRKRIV
Procedure: as §1, §2, §3, §4

SMILES	EC50 (alpha2B receptor) [nM]	Emax (alpha2B receptor) [%]	Emax (alpha2C receptor) [%]	EC50 (alpha2A receptor; RSAT, transfected NIH-3T3 cells with Gq/i5, nd = not determinable at concentrations less than 10 micromolar) [nM]	Emax (alpha2A receptor) [%]	EC50 (alpha2C receptor) [nM]
Cc1cc(C)c2c(c1)C(NC1=NCCN1)CCC2 (stereo not drawn) [compound 904, (4,5-Dihydro-1H-imidazol-2-yl)-(5,7-dimethyl-1,2,3,4-tetrahydro-naphthalen-1-yl)-amine]	68	80	4	1620	35	
c1ccc2c(c1)CCCC2NC1=NCCN1 (stereo not drawn) [compound 639, (4,5-Dihydro-1H-imidazol-2-yl)-(1,2,3,4-tetrahydro-naphthalen-1-yl)amine]	37	84	50		25	179
c1ccc2c(c1)CCC[C@@H]2NC1=NCCN1 [compound 323]	49	102	42		12	308
